The subject of data set [1] is HeLa cells. The data set can be described thus: MTT assay of Compound 8 with and without cisplatin. It counts as cell-based, human. As to conditions: for IC50: MTT, 3 days incubation. How it is done:
Compound 8 was tested in the MTT assay to determine its effects with and without cisplatin (see FIG. 1). Assays of cytotoxicity were conducted in 96-well, flat-bottomed microtitre plates. The supplemented culture medium (MEM, 40 μL) with HeLa cells (1×10^5 cells per mL) was added to the wells. Compound 8 was dissolved in the culture medium with 0.5% DMSO with concentrations ranged from 5 μM to 100 μM, and aliquots (10 μL) of the solutions were subsequently added to a set of wells containing the HeLa cells. To examine the synergistic effect of cisplatin, cisplatin was dissolved in the culture medium in order to prepare solutions with concentrations of 0, 0.2, 2 and 6 μM. Aliquots of the cisplatin solutions (50 μL) were added to different sets of the wells containing compound 8 and the HeLa cells. Cells for control experiments were treated with supplemented media with 0.5% DMSO (100 μL). The microtitre plates were incubated at 37° C. in a humidified atmosphere of 5% CO2/95% air for a further 3 days. Assessment of cytotoxicity was carried out by using a modified method of the Mosmann-based 3-(4,5-dimethylthiazol-2-yl)-2,5-diphenyltetrazolium bromide (MTT) assay [T. Mosmann, J. Immunol. Methods 1983, 65, 55]. At the end of the incubation period, MTT solution (10 μL, Cell Proliferation Kit I, Roche) was added into each well and the cultures were incubated further for 4 h at 37° C. in a humidified atmosphere of 5% CO2/95% air. A solubilizing solution (100 μL) was added into wells to lyse the cells and to solubilize the formed formazan complex. The microtitre plates were maintained in a dark, humidified chamber overnight. The formation of formazan was measured by using a microtitre plate reader at 550 nm and the percentages of cell survival were determined. The cytotoxicity was evaluated based on the percentage cell survival in a dose-dependent manner relative to the control.
(Tetrazolium assays rely on reduction of a dye to a coloured formazan, in cell work by metabolically active cells.)

Data set [2] relates to human cervix epitheloid carcinoma (HeLa) cell line. The data set can be described thus: Microculture Tetrazolium Test (MTT assay), cytotoxicity in HeLa cell line. It counts as cell-based. On the procedure:
The cytotoxicity of the complexes was tested by using human cervix epitheloid carcinoma (HeLa) cell line. In this respect the following method was selected.
The antiproliferation activity of these nitridoosmium compounds was examined on human tumor cell lines in the Microculture Tetrazolium Test (MTT assay) with continuous active substance exposition (24 h for compound 1-7; 48 h for compound 8-11). In this regard, adherent monolayer cultures of HeLa cell line were used.
Culture conditions: The cells were kept in 10 cm^2 culture plates at 37° C. and moist atmosphere (5% CO2). Dulbecco's Modified Eagle's Medium (DMEM) was used as culture medium, with 1% antibiotic-antimycotic and 10% fetal bovine serum.
Test execution: Cell were harvested from culture plates by trypsinization and seeded in 100 μL aliquots in complete culture medium into 96-well microculture plates. Cell density of about 4800 cells/well was chosen in order to ensure exponential growth throughout drug exposure. Cells were allowed to settle for 24 h, followed by the addition of dilutions of the test compounds, which were dissolved in DMSO, in 100 μL/well complete culture medium (<1% DMSO) and incubation for 24 h (compound 1-7) or 48 h (compound 8-11). At the end of exposure, drug solutions were replaced by 100 μL/well DMEM medium with 10% MTT solution in phosphate-buffered saline (5 mg/ml PBS). After incubation for 1 h at 37° C., medium was removed, and the reduced formazan product formed by the metabolic activity of vital cells was dissolved in 100 μL DMSO per well. Optical densities at a wavelength of 570 nm were measured with a microplate reader. The quantity of vital cells was expressed in terms of T/C values by comparison to untreated control microcultures, and IC50 values were calculated from concentration-effect curves by logarithmic interpolation. Evaluation is based on means from at least three independent experiments, each comprising four replicates per concentration level.

For data set [3], the system named is human non-small cell lung cancer cells NCI-H460. As to conditions: for tumor weight: twice a week, eight injections, end of study (30 days), Mean ± SD; for inhibition rate (%): tumor growth inhibition by tumor weight vs negative group. On the procedure:
In vitro cultured human non-small cell lung cancer cells NCI-H460 (from ATCC) were inoculated in nude mice (SPF grade BALB/c-nu male nude mice were purchased from Medical Laboratory Animal Center, Guangdong Province) subcutaneously. The in vivo anti-cancer properties of Os1 (Compound 8) and Os2 (Compound 1) given by intraperitoneal injection were examined by measuring the tumor nodule size of the nude mice.
Each nude mouse was inoculated subcutaneously with 0.2 mL of 7.5×10^6 cells/mL of NCI-H460 cells suspended in culture medium.
Experimental Procedure: 16-18 g male BALB/c-nu nude mice were inoculated subcutaneously 0.2 mL of the NCI-H460 cell suspension (1.5×10^6 cells/rats). The day after inoculation (administration day 1), the nude mice were randomly divided into eight groups and were grouped as follows:
1) positive group (cyclophosphamide 30.0 mg/kg, intraperitoneal injection)
2) negative group (20% PET, intraperitoneal injection)
3) Os1 groups (three treatment groups: 10, 3, 1 mg/kg, intraperitoneal injection)
4) Os2 groups (three treatment groups: 10, 3, 1 mg/kg, intraperitoneal injection)
Mice in each group were received treatment twice a week, with a total number of eight injections. Tumor sizes were measured every 3 days. The treated mice were sacrificed at the end of the study period (30 days) with anatomical separation of tumor nodules. The tumors were weighed and photographed.
The inhibition rate of tumor growth was determined using the following formula: Tumor growth inhibition rate (%)=(1−mean tumor weight of the treatment/mean tumor weight of the negative group)×100%. Tumor volume=longest dimension (mm)×[shortest dimension of the tumor (mm)]^2/2. All measurements were expressed in Mean±SD, using SPSS 10.0 for statistical analysis.

Like-named read-outs stand apart in the source and are kept apart here.

As a reminder, the IC50 is the concentration at which inhibition is half-maximal. Consider `N.N.[Cl][Pt][Cl]` [Cisplatin, cisplatin, reference compound], for which the 50% inhibitory concentration (IC50) in data set [1] (single agent) worked out at 7.5 µM.
In data set [2] (48 h exposure (compound 8-11)), `Cc1cc(C)[nH]n1.Cc1cc(C)[nH]n1.[N]#[Os]([Cl])([Cl])[Cl]` [Compound 10, trans-[Os^VI(N)(3,5-dimethylpyrazole)2Cl3]] returned an IC50 of less than 100 µM.
Still for that read-out and setting: the same measure for `Cc1ccn[nH]1.Cc1ccn[nH]1.[N]#[Os]([Cl])([Cl])[Cl]` [Compound 11, trans-[Os^VI(N)(5-methylpyrazole)2Cl3]]: less than 100 µM.
Regarding `O=P1(N(CCCl)CCCl)NCCCO1` (centres unmarked) [positive control, cyclophosphamide, reference compound], the “Tumor volume/mm^3” value in data set [3] (30 mg/kg i.p., day 14) is on record as 168.16 mm^3; in data set [3] (30 mg/kg i.p., day 18), 227.03 mm^3; in data set [3] (30 mg/kg i.p., day 22), 318.64 mm^3; in data set [3] (30 mg/kg i.p., day 26), 378.31 mm^3; in data set [3] (30 mg/kg i.p., day 30), 778.84 mm^3. Moreover, the “tumor weight” value in data set [3] (30.0 mg/kg i.p.) is 0.6095 ± 0.5477 g. Moreover, the “inhibition rate (%)” value in data set [3] (30.0 mg/kg i.p.) turned out to be 74.04%.
In data set [2] (24 h exposure (compound 1-7)), “[Os^VI(N)(5-Brsalpa)(OH2)Cl] [Compound 3]” showed an IC50 of less than 25 µM.
“[Os^VI(N)(5-Clsalpa)(OH2)Cl] [Compound 2]” yielded an IC50 in data set [2] (24 h exposure (compound 1-7)) of less than 25 µM.
On the same count and under the same terms, the same measure for “[Os^VI(N)(5-MeOsalpa)(OH2)Cl] [Compound 5]”: less than 25 µM.
In data set [2] (24 h exposure (compound 1-7)), “[Os^VI(N)(5-Mesalpa)(OH2)Cl] [Compound 4]” had an IC50 of less than 25 µM.
“[Os^VI(N)(5-NO2salpa)(OH2)Cl] [Compound 6]” yielded an IC50 in data set [2] (24 h exposure (compound 1-7)) of less than 100 µM.
For [Os^VI(N)(pyrazole)2Cl3] [Compound 8], the half-maximal inhibitory concentration (IC50) is less than 25 µM in data set [2] (48 h exposure (compound 8-11)); 3.8 µM in data set [1] (single agent); 4.19 µM in data set [1] (with cisplatin 0.1 μM); 3.38 µM in data set [1] (with cisplatin 1.0 μM); 4.7 µM in data set [1] (with cisplatin 3.0 μM). In data set [1], the “effectiveness in the MTT assay compared with cisplatin” value is on record as “more effective than cisplatin”. Further, in data set [1] (cisplatin 0.1-3.0 μM), the “synergistic effect of cisplatin administered with the compound” value is reported as “does not provide any synergistic effect”. In addition, the “Tumor volume/mm^3” value was determined as 288.12 mm^3 in data set [3] (1 mg/kg i.p., day 14); 518.99 mm^3 in data set [3] (1 mg/kg i.p., day 18); 801.59 mm^3 in data set [3] (1 mg/kg i.p., day 22); 1319.35 mm^3 in data set [3] (1 mg/kg i.p., day 26); 1569.69 mm^3 in data set [3] (1 mg/kg i.p., day 30); 482.89 mm^3 in data set [3] (3 mg/kg i.p., day 14). Further, the “Tumor volume/mm^3” value in data set [3] (3 mg/kg i.p., day 18) is on record as 1043.37 mm^3; in data set [3] (3 mg/kg i.p., day 22) it was 1140.42 mm^3; in data set [3] (3 mg/kg i.p., day 26), 1537.35 mm^3; in data set [3] (3 mg/kg i.p., day 30) it was 2262.38 mm^3; in data set [3] (10 mg/kg i.p., day 14), 534.98 mm^3; in data set [3] (10 mg/kg i.p., day 18), 901.64 mm^3. Moreover, the “Tumor volume/mm^3” value in data set [3] (10 mg/kg i.p., day 22) was found to be 1422.37 mm^3; in data set [3] (10 mg/kg i.p., day 26) it was 2004.80 mm^3; in data set [3] (10 mg/kg i.p., day 30), 2511.59 mm^3. For the same compound, the “tumor weight” value was 1.7206 ± 0.4289 g in data set [3] (1 mg/kg i.p.), 2.0631 ± 1.1693 g in data set [3] (3 mg/kg i.p.) and 2.7711 ± 1.0732 g in data set [3] (10 mg/kg i.p.). Moreover, the figures for the “inhibition rate (%)” value in data set [3] (1 mg/kg i.p.), in data set [3] (3 mg/kg i.p.) and in data set [3] (10 mg/kg i.p.) were 26.73%, 12.14% and −18.01%, respectively.
Consider [Os^VI(N)(salpa)(OH2)Cl] [Compound 1], for which the IC50 in data set [2] (24 h exposure (compound 1-7)) is less than 25 µM. For the same compound, the “Tumor volume/mm^3” value worked out at 380.21 mm^3 in data set [3] (1 mg/kg i.p., day 14); 710.06 mm^3 in data set [3] (1 mg/kg i.p., day 18); 726.71 mm^3 in data set [3] (1 mg/kg i.p., day 22); 1365.02 mm^3 in data set [3] (1 mg/kg i.p., day 26); 1110.38 mm^3 in data set [3] (1 mg/kg i.p., day 30); 420.80 mm^3 in data set [3] (3 mg/kg i.p., day 14). Further, the “Tumor volume/mm^3” value in data set [3] (3 mg/kg i.p., day 18) is 500.45 mm^3; in data set [3] (3 mg/kg i.p., day 22), 1011.29 mm^3; in data set [3] (3 mg/kg i.p., day 26), 1032.38 mm^3; in data set [3] (3 mg/kg i.p., day 30), 1390.62 mm^3; in data set [3] (10 mg/kg i.p., day 14) it was 507.33 mm^3; in data set [3] (10 mg/kg i.p., day 18), 671.87 mm^3. Besides, the “Tumor volume/mm^3” value in data set [3] (10 mg/kg i.p., day 22) was 1342.17 mm^3; in data set [3] (10 mg/kg i.p., day 26), 1601.47 mm^3; in data set [3] (10 mg/kg i.p., day 30) it was 2188.17 mm^3. In addition, the “tumor weight” value in data set [3] (1 mg/kg i.p.) is given as 1.2164 ± 0.6547 g; in data set [3] (3 mg/kg i.p.) it was 1.3542 ± 0.5337 g; in data set [3] (10 mg/kg i.p.) it was 2.1535 ± 1.4884 g. Moreover, the “deaths of treated mice” value in data set [3] (high-dose group (10 mg/kg i.p.)) was “one treated mouse died at day 7 and one died at day 19”; in data set [3] (middle dose group (3 mg/kg i.p.)), “one treated mouse died at day 23 and one died at day 26”. For the same compound, the “inhibition rate (%)” value is reported as 48.20% in data set [3] (1 mg/kg i.p.), 42.33% in data set [3] (3 mg/kg i.p.) and 8.29% in data set [3] (10 mg/kg i.p.).
Consider “tran-[Os^VI(N)(indazole)2Cl3] [Compound 9]”, for which the IC50 in data set [2] (48 h exposure (compound 8-11)) is less than 25 µM.

The values above are taken from patent US8383673B2, “Nitridoosmium(VI) complexes for treatment of cancer” (priority 2010, dated 2013).
